Data on six compounds can be found in patent publication EP2253617A1, “Halogenated compounds as pesticides” (Bayer CropScience AG, priority 2009, dated 2010).

One data set deals with Ctenocephalides felis. The data set can be described thus: Ctenocephalides felis oral test (CTECFE). Format: in vivo. Conditions: 100 ppm in citrated cattle blood, oral uptake, adult fleas, after 2 days; 100 % = all fleas killed. The procedure:
Ctenocephalides felis oral (CTECFE)
Lösungsmittel: 1 Gewichtsteil Dimethylsulfoxid
Zwecks Herstellung einer zweckmäßigen Wirkstoffzubereitung vermischt man 10 mg Wirkstoff mit 0,5 ml Dimethylsulfoxid. Ein Teil des Konzentrats wird mit citriertem Rinderblut verdünnt und die gewünschte Konzentration hergestellt.
20 nüchterne adulte Flöhe (Ctenocephalides felis) werden in eine Kammer eingesetzt, die oben und unten mit Gaze verschlossen ist. Auf die Kammer wird ein Metallzylinder gestellt, dessen Unterseite mit Parafilm verschlossen ist. Der Zylinder enthält die Blut-Wirkstoffzubereitung, die von den Flöhen durch die Parafilmmembran aufgenommen werden kann. Nach 2 Tagen wird die Abtötung in % bestimmt. Dabei bedeutet 100 %, dass alle Flöhe abgetötet wurden; 0 % bedeutet, dass kein Floh abgetötet wurde.

A further data set concerns Lucilia cuprina Larven. The data set can be described thus: Lucilia cuprina test (LUCICU). Format: in vivo. To be noted: 100 ppm, treated horse meat, larvae, after 2 days; 100 % = all larvae killed. The procedure:
Lucilia cuprina-Test (LUCICU)
(§1) Lösungsmittel: Dimethylsulfoxid
Zur Herstellung einer zweckmäßigen Wirkstoffzubereitung vermischt man 10 mg Wirkstoff mit 0,5 ml Dimethylsulfoxid und verdünnt das Konzentrat mit Wasser auf die gewünschte Konzentration.Gefäße, die Pferdefleisch enthalten, das mit der Wirkstoffzubereitung der gewünschten Konzentration behandelt wurde, werden mit Lucilia cuprina Larven besetzt.
Nach 2 Tagen wird die Abtötung in % bestimmt. Dabei bedeutet 100 %, dass alle Larven abgetötet wurden; 0 % bedeutet, dass keine Larven abgetötet wurden.

In the next data set the test system is Boophilus microplus. As to the kind of experiment: Boophilus microplus test (BOOPMI injection). Format: in vivo. To be noted: 20 µg / Tier, injection into the abdomen, after 7 days; 100 % = no tick laid fertile eggs. The method, then:
Boophilus microplus -Test (BOOPMI Injektion)
as §1
Zur Herstellung einer zweckmäßigen Wirkstoffzubereitung vermischt man 10 mg Wirkstoff mit 0,5 ml Lösungsmittel und verdünnt das Konzentrat mit Wasser auf die gewünschte Konzentration. Die Wirkstofflösung wird in das Abdomen (Boophilus microplus) injiziert, die Tiere werden in Schalen überführt und in einem klimatisierten Raum aufbewahrt. Die Wirkungskontrolle erfolgt auf Ablage fertiler Eier. Nach 7 Tagen wird die Wirkung in % bestimmt. Dabei bedeutet 100%, dass keine Zecke fertile Eier gelegt hat.

The subject of another data set is Phaedon cochleariae. The data set can be described thus: Phaedon test (PHAECO spray treatment). Format: in vivo. To be noted: 500 g/ha, sprayed Chinese cabbage leaf discs, larvae, after 7 days; 100 % = all beetle larvae killed. The text has this: Phaedon-Test (PHAECO Spritzbehandlung)
(§2) • Lösungsmittel: 78,0 GewichtsteileAceton 1,5 Gewichtsteile Dimethylformamid • Emulgator: 0,5 Gewichtsteile Alkylarylpolyglykolether
(§3) Zur Herstellung einer zweckmäßigen Wirkstoffzubereitung vermischt man 1 Gewichtsteil Wirkstoff mit den angegebenen Mengen Lösungsmittel und Emulgator und verdünnt das Konzentrat mit emulgatorhaltigem Wasser auf die gewünschte Konzentration.
Chinakohlblattscheiben (Brassica pekinensis) werden mit einer Wirkstoffzubereitung der gewünschten Konzentration gespritzt und nach dem Abtrocknen mit Larven des Meerrettichblattkäfers (Phaedon cochleariae) besetzt.
Nach 7 Tagen wird die Wirkung in % bestimmt. Dabei bedeutet 100 %, dass alle Käferlarven abgetötet wurden; 0 % bedeutet, dass keine Käferlarven abgetötet wurden.

The subject of another data set is Spodoptera frugiperda. As to the kind of experiment: Spodoptera frugiperda test (SPODFR spray treatment). Format: in vivo. Conditions: 500 g/ha, sprayed maize leaf discs, caterpillars, after 7 days; 100 % = all caterpillars killed.
Text: Spodoptera frugiperda-Test (SPODFR Spritzbehandlung)
as §2, §3
Maisblattscheiben (Zea mays) werden mit einer Wirkstoffzubereitung der gewünschten Konzentration gespritzt und nach dem Abtrocknen mit Raupen des Heerwurms (Spodoptera frugiperda) besetzt.Nach 7 Tagen wird die Wirkung in % bestimmt. Dabei bedeutet 100 %, dass alle Raupen abgetötet wurden; 0 % bedeutet, dass keine Raupe abgetötet wurde.

For a further data set, the system named is Tetranychus urticae. The data set is classed as in vivo. Conditions: foliar, 500 g/ha, 144 h.
Text: Tetranychus-Test, OP-resistent (TETRUR Spritzbehandlung)
as §2, §3
Bohnenblattscheiben (Phaseolus vulgaris), die von allen Stadien der Gemeinen Spinnmilbe (Tetranychus urticae) befallen sind, werden mit einer Wirkstoffzubereitung der gewünschten Konzentration gespritzt.
Nach 6 Tagen wird die Wirkung in % bestimmt. Dabei bedeutet 100 %, dass alle Spinnmilben abgetötet wurden; 0 % bedeutet, dass keine Spinnmilben abgetötet wurden.

For a further data set, the system named is Musca domestica Adulten. As to the kind of experiment: Musca domestica test (MUSCDO). Format: in vivo. Conditions: 100 ppm, treated sponge, adults, after 2 days; 100 % = all flies killed. The procedure: Musca domestica-Test (MUSCDO)
as §1
Zur Herstellung einer zweckmäßigen Wirkstoffzubereitung vermischt man 10 mg Wirkstoff mit 0,5 ml Dimethylsulfoxid und verdünnt das Konzentrat mit Wasser auf die gewünschte Konzentration. Gefäße, die einen Schwamm enthalten, der mit der Wirkstoffzubereitung der gewünschten Konzentration behandelt wurde, werden mit Musca domestica Adulten besetzt.
Nach 2 Tagen wird die Abtötung in % bestimmt. Dabei bedeutet 100 %, dass alle Fliegen abgetötet wurden; 0 % bedeutet, dass keine Fliegen abgetötet wurden.

Broadly, the chromatographic logP is lipophilicity estimated from chromatographic retention. For the compound `COc1cccc(NC(=O)c2cc(NC(=O)c3c(C(F)(F)F)c(C(F)(F)C(F)(F)F)nn3C)ccc2Cl)c1` [Ia-16], the “Wirkung (Abtötung in %)” value with Ctenocephalides felis turned out to be 95%; in the data set on Lucilia cuprina Larven it was 90%. The Wirkung was 100% in the data set with Boophilus microplus, 100% in the data set with Phaedon cochleariae, 100% in the data set with Spodoptera frugiperda and 80% in the data set with Tetranychus urticae. In addition, in the data set “physchem”, the chromatographic logP came to 3.84.

For `Cn1nc(C(F)(F)C(F)(F)F)c(C(F)(F)F)c1C(=O)Nc1ccc(Cl)c(C(=O)Nc2ccc(F)cc2)c1` [Ia-17], the “Wirkung (Abtötung in %)” value in the data set with Ctenocephalides felis is recorded as 90%; in the data set on Lucilia cuprina Larven, 100%; in the data set on Musca domestica Adulten it was 100%. The Wirkung with Boophilus microplus is 100%; with Phaedon cochleariae it was 100%; with Spodoptera frugiperda, 100%; with Tetranychus urticae it was 80%. This compound also yielded a chromatographic logP in the data set “physchem” of 3.89.

With `Cn1nc(C(F)(F)C(F)(F)F)c(C(F)(F)F)c1C(=O)Nc1ccc(Cl)c(C(=O)Nc2ccc(F)cc2F)c1` [Ia-22], the “Wirkung (Abtötung in %)” value in the data set with Ctenocephalides felis was determined as 100%; in the data set on Lucilia cuprina Larven, 100%; in the data set on Musca domestica Adulten, 90%. Further, the Wirkung with Boophilus microplus, in the data set with Phaedon cochleariae, with Spodoptera frugiperda and in the data set on Tetranychus urticae was 100% throughout. The compound also showed a chromatographic logP in “physchem” of 4.05.

Regarding `Cn1nc(C(F)(F)C(F)(F)F)c(C(F)(F)F)c1C(=O)Nc1ccc(Cl)c(C(=O)Nc2cc(Cl)ccn2)c1` [Ia-26], the “Wirkung (Abtötung in %)” value is given as 80% in the data set on Ctenocephalides felis, 100% in the data set with Lucilia cuprina Larven and 80% in the data set with Musca domestica Adulten. In addition, the Wirkung is recorded as 100% with Boophilus microplus, 100% with Phaedon cochleariae, 100% in the data set with Spodoptera frugiperda and 90% with Tetranychus urticae. In addition, the chromatographic logP in “physchem” is 4.17.

With `Cn1nc(C(F)(F)C(F)(F)F)c(C(F)(F)F)c1C(=O)Nc1ccc(Cl)c(C(=O)Nc2ccc(Cl)cc2)c1` [Ia-28], the “Wirkung (Abtötung in %)” value in the data set on Ctenocephalides felis turned out to be 80%; with Lucilia cuprina Larven it was 100%. Also, the Wirkung is listed as 100% in the data set with Boophilus microplus, 100% in the data set with Phaedon cochleariae, 100% with Spodoptera frugiperda and 80% in the data set on Tetranychus urticae. The chromatographic logP in “physchem” was 4.23.

Turning to `Cn1nc(C(F)(F)C(F)(F)F)c(C(F)(F)F)c1C(=O)Nc1ccc(Cl)c(C(=O)Nc2cccc(Cl)c2)c1` [Ia-30], the figures for the “Wirkung (Abtötung in %)” value in the data set with Ctenocephalides felis and in the data set on Lucilia cuprina Larven were 90% and 100%, respectively. For the same compound, the Wirkung in the data set with Boophilus microplus came out at 100%; in the data set with Phaedon cochleariae it was 100%; in the data set with Spodoptera frugiperda, 100%; with Tetranychus urticae, 90%. Besides, the chromatographic logP in the data set “physchem” turned out to be 4.28.
